Test results: US8883782B2, “Spiro-tetracyclic ring compounds as beta-secretase modulators and methods of use” (Amgen Inc., priority 2010, dated 2014)

Legend:
[1] = biological target: Beta Secretase enzyme (BACE) (Homo sapiens, UniProt P56817); assay: In vitro enzymatic BACE FRET (fluorescence resonance energy transfer) assay; assay type: biochemical; conditions: average IC50, enzyme assay; read-out: BACE 1 FRET assay
Summary of the method: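 A peptide bearing a fluorophore and quencher across the cleavage site serves as substrate at 50 nM. Reactions proceed one hour in acidic acetate buffer (0.05 M, pH 4.2) containing 10% DMSO final and 100 uM genapol, then are terminated with Tris and read fluorimetrically.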

[2] = system: Aβ40 in conditioned medium of cells stably expressing Amyloid Precursor Protein (APP); assay: In vitro BACE cell-based assay (Aβ40 in conditioned medium, sandwich ELISA); conditions: Homo sapiens, HEK293, average IC50, HEK cells; read-out: HEK cell assay
Summary of the method: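 Conditioned medium from stably APP-expressing cells treated with compound dose series is assayed for Aβ40 by sandwich ELISA with time-resolved fluorescence detection. IC50 is calculated from percent inhibition of Aβ40 against compound concentration.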

Chain of Beta Secretase enzyme (BACE) (P56817 46-501, species assumed): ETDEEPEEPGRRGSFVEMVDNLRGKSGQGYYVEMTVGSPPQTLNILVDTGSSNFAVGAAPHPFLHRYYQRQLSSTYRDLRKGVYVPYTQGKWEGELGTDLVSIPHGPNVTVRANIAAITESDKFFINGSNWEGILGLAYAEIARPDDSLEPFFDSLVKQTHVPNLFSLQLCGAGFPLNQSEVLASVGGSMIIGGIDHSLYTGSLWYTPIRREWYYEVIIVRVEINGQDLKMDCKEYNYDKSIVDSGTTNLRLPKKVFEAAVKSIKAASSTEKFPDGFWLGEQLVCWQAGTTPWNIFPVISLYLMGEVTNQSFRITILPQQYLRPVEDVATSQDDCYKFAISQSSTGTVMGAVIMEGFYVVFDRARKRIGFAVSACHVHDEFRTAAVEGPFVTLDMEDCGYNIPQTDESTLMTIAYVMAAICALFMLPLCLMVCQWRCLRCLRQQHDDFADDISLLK

SMILES	IC50 [1] [nM]	IC50 [2] [nM]
CC1(C)C[C@H](c2cnc3c(c2)[C@]2(COC(N)=N2)c2cc(-c4cccnc4F)ccc2O3)CCO1 [Example 453, (5S)-3-((4R)-2,2-dimethyltetrahydro-2H-pyran-4-yl)-7-(2-fluoro-3-pyridinyl)spiro[chromeno[2,3-b]pyridine-5,4′-[1,3]oxazol]-2′-amine]	2.4	12.2
NC1=N[C@@]2(CO1)c1cc(-c3cc(Cl)cnc3F)ccc1Oc1ncc(C3=CCOCC3)cc12 [Example 454, (5S)-7-(5-chloro-2-fluoro-3-pyridinyl)-3-(3,6-dihydro-2H-pyran-4-yl)spiro[chromeno[2,3-b]pyridine-5,4′-[1,3]oxazol]-2′-amine]	0.9	3.2
CC1(C#Cc2cnc3c(c2)[C@]2(COC(N)=N2)c2cc(-c4cc(Cl)cnc4F)ccc2O3)COC1 [Example 456, (5S)-7-(5-chloro-2-fluoro-3-pyridinyl)-3-((3-methyl-3-oxetanyl)ethynyl)spiro[chromeno[2,3-b]pyridine-5,4′-[1,3]oxazol]-2′-amine]	0.6	2.2
NC1=N[C@@]2(CO1)c1cc(-c3cncc(F)c3)ccc1Oc1ncc(C3=CCOCC3)cc12 [Example 457, (5S)-3-(3,6-dihydro-2H-pyran-4-yl)-7-(5-fluoro-3-pyridinyl)spiro[chromeno[2,3-b]pyridine-5,4′-[1,3]oxazol]-2′-amine]	1.5	6.6
CC1(C#Cc2cnc3c(c2)[C@]2(COC(N)=N2)c2cc(-c4cncc(F)c4)ccc2O3)COC1 [Example 458, (5S)-7-(5-fluoro-3-pyridinyl)-3-((3-methyl-3-oxetanyl)ethynyl)spiro[chromeno[2,3-b]pyridine-5,4′-[1,3]oxazol]-2′-amine]	1.2	5.1
COc1cncc(-c2ccc3c(c2)[C@@]2(COC(N)=N2)c2cc(C4=CCOCC4)cnc2O3)c1 [Example 459, (5S)-3-(3,6-dihydro-2H-pyran-4-yl)-7-(5-methoxy-3-pyridinyl)spiro[chromeno[2,3-b]pyridine-5,4′-[1,3]oxazol]-2′-amine]	2.2	6.2
COc1cncc(-c2ccc3c(c2)[C@@]2(COC(N)=N2)c2cc(C#CC4(C)COC4)cnc2O3)c1 [Example 461, (5S)-7-(5-methoxy-3-pyridinyl)-3-((3-methyl-3-oxetanyl)ethynyl)spiro[chromeno[2,3-b]pyridine-5,4′-[1,3]oxazol]-2′-amine]	1.8	6.3
CC1(C#Cc2ccc3c(c2)[C@@]2(COC(N)=N2)c2cc(C4=CCOCC4)cnc2O3)COC1 [Example 462, (5S)-3-(3,6-dihydro-2H-pyran-4-yl)-7-((3-methyl-3-oxetanyl)ethynyl)spiro[chromeno[2,3-b]pyridine-5,4′-[1,3]oxazol]-2′-amine]	5.9	18.9
CC(C)(C)C#Cc1ccc2c(c1)[C@@]1(COC(N)=N1)c1cc(N3CCOCC3)cnc1O2 [Example 464, (5S)-7-(3,3-dimethyl-1-butyn-1-yl)-3-(4-morpholinyl)spiro[chromeno[2,3-b]pyridine-5,4′-[1,3]oxazol]-2′-amine]	12.8	69
CC1(C)C[C@@H](c2cnc3c(c2)[C@]2(COC(N)=N2)c2cc(-c4cccc(Cl)c4)ccc2O3)CCO1 [Example 465, (5S)-7-(3-chlorophenyl)-3-((4S)-2,2-dimethyltetrahydro-2H-pyran-4-yl)spiro[chromeno[2,3-b]pyridine-5,4′-[1,3]oxazol]-2′-amine]	1.7	11.1
CC1(C)C[C@@H](c2cnc3c(c2)[C@]2(COC(N)=N2)c2cc(-c4cncc(Cl)c4)ccc2O3)CCO1 [Example 466, (5S)-7-(5-chloro-3-pyridinyl)-3-((4S)-2,2-dimethyltetrahydro-2H-pyran-4-yl)spiro[chromeno[2,3-b]pyridine-5,4′-[1,3]oxazol]-2′-amine]	2.1	5.6
